Molecular target: T1, sOGT (Homo sapiens, UniProt O15294)
T1 construct: ncOGT and sOGT are identical to known splice variants; His8 (C); made in house; host or cells: E. coli BL21(DE3)
T1 sequence (O15294 1-665 isoform O15294-4): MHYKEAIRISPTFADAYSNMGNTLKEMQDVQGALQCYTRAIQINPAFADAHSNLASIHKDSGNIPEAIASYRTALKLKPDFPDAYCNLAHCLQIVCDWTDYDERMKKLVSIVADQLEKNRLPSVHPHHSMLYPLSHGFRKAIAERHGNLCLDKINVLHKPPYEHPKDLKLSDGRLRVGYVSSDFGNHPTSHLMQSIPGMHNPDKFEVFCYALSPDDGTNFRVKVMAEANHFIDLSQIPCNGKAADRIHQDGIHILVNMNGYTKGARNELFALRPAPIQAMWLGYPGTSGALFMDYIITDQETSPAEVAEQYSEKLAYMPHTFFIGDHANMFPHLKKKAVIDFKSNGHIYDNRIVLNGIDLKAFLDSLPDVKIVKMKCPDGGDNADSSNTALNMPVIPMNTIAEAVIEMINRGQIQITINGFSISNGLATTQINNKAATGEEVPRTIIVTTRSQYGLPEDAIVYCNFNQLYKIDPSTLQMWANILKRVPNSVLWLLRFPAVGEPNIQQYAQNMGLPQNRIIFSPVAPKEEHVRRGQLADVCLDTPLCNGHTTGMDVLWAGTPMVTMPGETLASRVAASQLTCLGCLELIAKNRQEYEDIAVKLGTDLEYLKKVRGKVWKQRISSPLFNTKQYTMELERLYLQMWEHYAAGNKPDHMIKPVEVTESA
Assay: Fluorescence polarization displacement of probe 3 from sOGT (validation with UDP and UDP-GlcNAc)
Format: binding
Method: 20 μL of this solution is transferred to wells of a 384-well microplate. […] Fluorescence polarization was measured using a Perkin Elmer Envision® microplate reader. Bach series was performed in triplicate and the average of each data point was converted from mP to anisotropy then fitted to the following equation:
[L]0=(KD(Amax−A)/Kd(A−Amin)+1)([E]0−Kd(A−Amin)/(Amax−A)−[t]0(A−Amin)/(Amax−Amin)) eq 3
where A=measured anisotropy at a particular total concentration of ligand (L), sOGT (E) and probe 3 (t), Amin=minimum polarization (i.e., anisotropy of free probe), Amax=final anisotropy (i.e., anisotropy of probe 3 bound entirely to sOGT), KD=dissociation constant of the ligand, Kd=dissociation constant of the probe 3.

- Kd (50 nM probe 3, […] sOGT, ligand 50 μM to 98 nM, read-out: KD (dissociation constant) from displacement of probe 3 from sOGT): 800 ± 300 nM
- extent of displacement of probe 3 from sOGT (at high concentrations of ligand): completely displaced probe 3 from sOGT
SMILES: O=c1ccn([C@@H]2O[C@H](COP(=O)(O)OP(=O)(O)O)[C@@H](O)[C@H]2O)c(=O)[nH]1 [UDP]
